Reference: patent US9707233B2, “Heterocyclylamines as PI3K inhibitors” (Incyte Corporation, priority 2011, dated 2017)

Biological target: PI3Kδ (p110δ/p85α) (Homo sapiens (Human), UniProt O00329)
Test: PI3Kδ scintillation proximity assay (Example A3)
Type: biochemical
Conditions: 20 μM ATP, 20 μM PIP2, 4 nM PI3Kδ; read-out: PI3Kδ SPA IC50
Summary of the method: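 Human PI3Kδ (p110δ/p85α, 4 nM) with 20 μM PIP2 and 20 μM ATP plus [γ-33P]ATP in 20 mM MOPS pH 6.7, 10 mM MgCl2, 5 mM DTT, 0.03% CHAPS, 0.5% DMSO, room temperature. Reaction stopped with EDTA/excess ATP; product captured on WGA SPA beads and counted. IC50 from percent control activity vs log inhibitor.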

Sequence of PI3Kδ (p110δ/p85α) (O00329 whole entry): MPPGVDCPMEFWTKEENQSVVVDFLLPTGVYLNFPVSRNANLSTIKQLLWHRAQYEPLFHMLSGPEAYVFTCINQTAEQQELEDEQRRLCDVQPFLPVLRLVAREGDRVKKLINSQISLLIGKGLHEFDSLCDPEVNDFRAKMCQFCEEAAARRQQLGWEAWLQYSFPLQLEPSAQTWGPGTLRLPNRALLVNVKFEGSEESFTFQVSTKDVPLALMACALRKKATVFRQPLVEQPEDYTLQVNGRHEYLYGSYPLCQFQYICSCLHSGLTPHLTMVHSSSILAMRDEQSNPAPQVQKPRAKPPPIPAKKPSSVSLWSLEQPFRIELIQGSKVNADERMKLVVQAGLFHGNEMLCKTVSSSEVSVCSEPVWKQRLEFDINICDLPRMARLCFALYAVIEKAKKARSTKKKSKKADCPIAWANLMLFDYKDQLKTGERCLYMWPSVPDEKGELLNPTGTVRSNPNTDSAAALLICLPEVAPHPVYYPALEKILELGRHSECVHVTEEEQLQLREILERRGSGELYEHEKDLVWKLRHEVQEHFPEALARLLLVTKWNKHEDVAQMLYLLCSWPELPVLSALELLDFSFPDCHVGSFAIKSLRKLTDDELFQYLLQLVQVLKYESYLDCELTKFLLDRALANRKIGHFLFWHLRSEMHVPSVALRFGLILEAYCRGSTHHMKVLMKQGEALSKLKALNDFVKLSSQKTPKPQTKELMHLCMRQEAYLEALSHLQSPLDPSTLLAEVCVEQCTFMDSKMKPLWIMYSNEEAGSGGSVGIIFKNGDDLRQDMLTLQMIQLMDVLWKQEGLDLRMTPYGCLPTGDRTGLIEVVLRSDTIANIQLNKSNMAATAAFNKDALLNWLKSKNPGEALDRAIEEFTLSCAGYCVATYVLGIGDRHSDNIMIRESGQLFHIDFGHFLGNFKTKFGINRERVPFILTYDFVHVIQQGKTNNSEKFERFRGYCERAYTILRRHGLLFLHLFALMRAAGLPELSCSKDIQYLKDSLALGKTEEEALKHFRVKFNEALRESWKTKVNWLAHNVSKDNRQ
Sequence of PI3Kδ (p110δ/p85α) (P27986 whole entry partner): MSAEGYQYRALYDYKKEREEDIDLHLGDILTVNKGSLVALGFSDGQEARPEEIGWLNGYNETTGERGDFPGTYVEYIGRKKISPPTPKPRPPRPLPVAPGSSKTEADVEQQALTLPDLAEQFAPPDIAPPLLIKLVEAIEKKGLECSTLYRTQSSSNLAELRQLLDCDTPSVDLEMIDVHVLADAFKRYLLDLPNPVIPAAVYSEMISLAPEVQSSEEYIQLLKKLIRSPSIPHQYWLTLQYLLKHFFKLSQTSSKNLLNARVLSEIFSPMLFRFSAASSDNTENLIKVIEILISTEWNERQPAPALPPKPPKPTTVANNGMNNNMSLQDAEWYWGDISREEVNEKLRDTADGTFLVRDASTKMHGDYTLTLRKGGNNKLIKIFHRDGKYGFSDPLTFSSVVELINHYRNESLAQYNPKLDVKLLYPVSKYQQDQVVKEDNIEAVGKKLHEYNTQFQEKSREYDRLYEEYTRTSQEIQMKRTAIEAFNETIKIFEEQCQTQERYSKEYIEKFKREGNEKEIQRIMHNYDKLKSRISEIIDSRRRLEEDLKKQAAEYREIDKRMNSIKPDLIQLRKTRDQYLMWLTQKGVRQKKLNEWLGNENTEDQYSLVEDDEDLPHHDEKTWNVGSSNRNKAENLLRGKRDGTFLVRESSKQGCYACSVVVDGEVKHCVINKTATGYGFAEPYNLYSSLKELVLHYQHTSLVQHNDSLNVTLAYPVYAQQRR

IC50 [nM]	Molecule
≤ 10	CCOc1c(C(C)n2nc(-c3ccn(C)n3)c3c(N)ncnc32)cc(Cl)c(C)c1-c1ccc(C(=O)N(C)C)nc1 (centres unmarked) [Example 50, 5-(3-{1-[4-amino-3-(1-methyl-1H-pyrazol-3-yl)-1H-pyrazolo[3,4-d]pyrimidin-1-yl]ethyl}-5-chloro-2-ethoxy-6-methylphenyl)-N,N-dimethylpyridine-2-carboxamide bis(trifluoroacetate)]
≤ 10	CCOc1c(C(C)n2nc(C)c3c(N)ncnc32)cc(Cl)c(F)c1C1COC(=O)N1 (single isomer, unassigned) [Example 354, 4-{3-[1-(4-amino-3-methyl-1H-pyrazolo[3,4-d]pyrimidin-1-yl)ethyl]-5-chloro-2-ethoxy-6-fluorophenyl}-1,3-oxazolidin-2-one]
≤ 10	COc1c(C(C)n2nc(-c3cnn(C)c3)c3c(N)ncnc32)cc(Cl)c(C)c1C1CN(CC#N)C1 (racemic) [Example 125, [3-(3-{1-[4-Amino-3-(1-methyl-1H-pyrazol-4-yl)-1H-pyrazolo[3,4-d]pyrimidin-1-yl]ethyl}-5-chloro-2-methoxy-6-methylphenyl)azetidin-1-yl]acetonitrile bis(trifluoroacetate)]
≤ 10	CCOc1c(C(C)n2nc(C)c3c(N)ncnc32)cc(Cl)c(F)c1C1CN(C)C1 (racemic) [Example 145, 1-{1-[5-Chloro-2-ethoxy-4-fluoro-3-(1-methylazetidin-3-yl)phenyl]ethyl}-3-methyl-1H-pyrazolo[3,4-d]pyrimidin-4-amine]
≤ 10	COc1c(C(C)n2nc(C)c3c(N)ncnc32)cc(Cl)c(C)c1C1CN(C(=O)C(C)(C)O)C1 (single isomer, unassigned) [Example 123, 1-(3-{3-[1-(4-Amino-3-methyl-1H-pyrazolo[3,4-d]pyrimidin-1-yl)ethyl]-5-chloro-2-methoxy-6-methylphenyl}azetidin-1-yl)-2-methyl-1-oxopropan-2-ol]
≤ 10	COc1c(C(C)n2nc(C)c3c(N)ncnc32)cc(Cl)c(C#N)c1C1CN(C(=O)C(C)C)C1 (single isomer, unassigned) [Example 283, 4-[1-(4-Amino-3-methyl-1H-pyrazolo[3,4-d]pyrimidin-1-yl)ethyl]-6-chloro-2-(1-isobutyrylazetidin-3-yl)-3-methoxybenzonitrile]
≤ 10	COc1c(C(C)n2nc(C(F)F)c3c(N)ncnc32)cc(Cl)c(F)c1C1CN(C)C1 (centres unmarked) [Example 75, 1-{1-[5-Chloro-4-fluoro-2-methoxy-3-(1-methylazetidin-3-yl)phenyl]ethyl}-3-(difluoromethyl)-1H-pyrazolo[3,4-d]pyrimidin-4-amine]
≤ 10	CCOc1c(C(C)n2nc(C)c3c(N)ncnc32)cc(Cl)c(F)c1C1CN(CCO)C1 (centres unmarked) [Example 144, 2-(3-{3-[1-(4-Amino-3-methyl-1H-pyrazolo[3,4-d]pyrimidin-1-yl)ethyl]-5-chloro-2-ethoxy-6-fluorophenyl}azetidin-1-yl)ethanol]
≤ 10	COc1c(C(C)n2nc(C)c3c(N)ncnc32)cc(Cl)c(C)c1C1CN(C(=O)C2(O)CC2)C1 (single isomer, unassigned) [Example 122, 1-[(3-{3-[1-(4-Amino-3-methyl-1H-pyrazolo[3,4-d]pyrimidin-1-yl)ethyl]-5-chloro-2-methoxy-6-methylphenyl}azetidin-1-yl)carbonyl]cyclopropanol]
≤ 10	COc1c(C(C)n2nc(C)c3c(N)ncnc32)cc(Cl)c(C)c1-c1ccnc(C(=O)N(C)CCO)c1 (racemic) [Example 19, 4-{3-[1-(4-amino-3-methyl-1H-pyrazolo[3,4-d]pyrimidin-1-yl)ethyl]-5-chloro-2-methoxy-6-methylphenyl}-N-(2-hydroxyethyl)-N-methylpyridine-2-carboxamide]
≤ 10	CCOc1c(C(C)n2nc(C)c3c(N)ncnc32)cc(Cl)c(C#N)c1N1CC(COC)C1 (racemic) [Example 341, 4-[1-(4-amino-3-methyl-1H-pyrazolo[3,4-d]pyrimidin-1-yl)ethyl]-6-chloro-3-ethoxy-2-[3-(methoxymethyl)azetidin-1-yl]benzonitrile]
≤ 10	CCOc1c(C(C)n2nc(-c3ccncc3)c3c(N)ncnc32)cc(Cl)c(C)c1-c1ccc(C(=O)N(C)C)nc1 (racemic) [Example 60, 5-{3-[1-(4-amino-3-pyridin-4-yl-1H-pyrazolo[3,4-d]pyrimidin-1-yl)ethyl]-5-chloro-2-ethoxy-6-methylphenyl}-N,N-dimethylpyridine-2-carboxamide tris(trifluoroacetate)]
≤ 10	COc1c(C(C)n2nc(C)c3c(N)ncnc32)cc(Cl)c(C)c1-c1cncc(C(=O)N2CCC(O)CC2)c1 (single isomer, unassigned) [Example 176, 1-[(5-{3-[1-(4-amino-3-methyl-1H-pyrazolo[3,4-d]pyrimidin-1-yl)ethyl]-5-chloro-2-methoxy-6-methylphenyl}pyridin-3-yl)carbonyl]piperidin-4-ol]
≤ 10	COc1c(C(C)n2nc(C)c3c(N)ncnc32)cc(Cl)c(C)c1C1CN(C(=O)c2cn[nH]c2)C1 (single isomer, unassigned) [Example 124, 1-(1-{5-Chloro-2-methoxy-4-methyl-3-[1-(1H-pyrazol-4-ylcarbonyl)azetidin-3-yl]phenyl}ethyl)-3-methyl-1H-pyrazolo[3,4-d]pyrimidin-4-amine]
≤ 10	CCOc1c(C(C)n2nc(C)c3c(N)ncnc32)cc(C#N)c(C)c1-c1cnn(C)c1 (single isomer, unassigned) [Example 210, 5-[1-(4-Amino-3-methyl-1H-pyrazolo[3,4-d]pyrimidin-1-yl)ethyl]-4-ethoxy-2-methyl-3-(1-methyl-1H-pyrazol-4-yl)benzonitrile]
≤ 10	CCOc1c(C(C)n2nc(-c3cn[nH]c3)c3c(N)ncnc32)cc(Cl)c(C)c1-c1ccc(C(=O)N(C)C)nc1 (racemic) [Example 48, 5-(3-{1-[4-amino-3-(1H-pyrazol-4-yl)-1H-pyrazolo[3,4-d]pyrimidin-1-yl]ethyl}-5-chloro-2-ethoxy-6-methylphenyl)-N,N-dimethylpyridine-2-carboxamide bis(trifluoroacetate)]
≤ 10	CCOC(=O)N1CC(c2c(C#N)c(Cl)cc(C(C)n3nc(C)c4c(N)ncnc43)c2OC)C1 (single isomer, unassigned) [Example 290, Ethyl 3-{3-[1-(4-amino-3-methyl-1H-pyrazolo[3,4-d]pyrimidin-1-yl)ethyl]-5-chloro-6-cyano-2-methoxyphenyl}azetidine-1-carboxylate]
50 to 200	COc1c(C(C)n2nc(C)c3c(N)ncnc32)cc(Cl)c(C)c1CC1CC1 (single isomer, unassigned) [Example 193, 1-{1-[5-Chloro-3-(cyclopropylmethyl)-2-methoxy-4-methylphenyl]ethyl}-3-methyl-1H-pyrazolo[3,4-d]pyrimidin-4-amine]
≤ 10	CCOc1c(C(C)n2nc(C)c3c(N)ncnc32)cc(Cl)c(C#N)c1C1CN(C(N)=O)C1 (single isomer, unassigned) [Example 256, 3-{3-[1-(4-Amino-3-methyl-1H-pyrazolo[3,4-d]pyrimidin-1-yl)ethyl]-5-chloro-6-cyano-2-ethoxyphenyl}azetidine-1-carboxamide]
≤ 10	COc1c(C(C)n2nc(C)c3c(N)ncnc32)cc(Cl)c(C)c1C1CN(C(C)C)C1 (single isomer, unassigned) [Example 1, 1-{1-[5-Chloro-3-(1-isopropylazetidin-3-yl)-2-methoxy-4-methylphenyl]ethyl}-3-methyl-1H-pyrazolo[3,4-d]pyrimidin-4-amine bis(trifluoroacetate)]
≤ 10	CCOc1c(C(C)n2nc(C)c3c(N)ncnc32)cc(Cl)c(C#N)c1C1CN(C2CCOC2)C1 (single isomer, unassigned) [Example 227, 4-[1-(4-Amino-3-methyl-1H-pyrazolo[3,4-d]pyrimidin-1-yl)ethyl]-6-chloro-3-ethoxy-2-[1-(tetrahydrofuran-3-yl)azetidin-3-yl]benzonitrile]
≤ 10	COc1c(C(C)n2nc(C)c3c(N)ncnc32)cc(Cl)c(C#N)c1C1CN(CC(C)C)C1 (single isomer, unassigned) [Example 265, 4-[1-(4-Amino-3-methyl-1H-pyrazolo[3,4-d]pyrimidin-1-yl)ethyl]-6-chloro-2-(1-isobutylazetidin-3-yl)-3-methoxybenzonitrile]

Molecule	IC50 [nM]
CCOc1c(C(C)n2nc(C)c3c(N)ncnc32)cc(Cl)c(C)c1C1CNC(=O)C1 (single isomer, unassigned) [Example 311, 4-{3-[1-(4-amino-3-methyl-1H-pyrazolo[3,4-d]pyrimidin-1-yl)ethyl]-5-chloro-2-ethoxy-6-methylphenyl}pyrrolidin-2-one]	≤ 10
CCOc1c(C(C)n2nc(C)c3c(N)ncnc32)cc(C)c(C#N)c1-c1ccc(C(=O)N(C)C)nc1 (single isomer, unassigned) [314 (2nd peak), 5-{3-[1-(4-amino-3-methyl-1H-pyrazolo[3,4-d]pyrimidin-1-yl)ethyl]-6-cyano-2-ethoxy-5-methylphenyl}-N,N-dimethylpyridine-2-carboxamide]	≤ 10
COc1c(C(C)n2nc(C)c3c(N)nccc32)cc(Cl)c(C)c1-c1ccc(C(=O)N(C)C)nc1 (racemic) [Example 41, 5-{3-[1-(4-Amino-3-methyl-1H-pyrazolo[4,3-c]pyridin-1-yl)ethyl]-5-chloro-2-methoxy-6-methylphenyl}-N,N-dimethylpyridine-2-carboxamide bis(trifluoroacetate)]	50 to 200
2-(4-(3-(1-(4-Amino-3-methyl-1H-pyrazolo[3,4-d]pyrimidin-1-yl)ethyl)-5-chloro-2-ethoxy-6-methylphenyl)-1H-pyrazol-1-yl) acetamide [Example 203]	≤ 10
